Measurements from BindingDB's records for doi:10.1021/bi5004519 (University of Pennsylvania, 2014).

Key:
Arginase [1] = target: T1, Arginase (Schistosoma mansoni, UniProt Q6WVP6); assay: ITC; conditions: pH 8.5
T1 sequence (Q6WVP6 whole entry): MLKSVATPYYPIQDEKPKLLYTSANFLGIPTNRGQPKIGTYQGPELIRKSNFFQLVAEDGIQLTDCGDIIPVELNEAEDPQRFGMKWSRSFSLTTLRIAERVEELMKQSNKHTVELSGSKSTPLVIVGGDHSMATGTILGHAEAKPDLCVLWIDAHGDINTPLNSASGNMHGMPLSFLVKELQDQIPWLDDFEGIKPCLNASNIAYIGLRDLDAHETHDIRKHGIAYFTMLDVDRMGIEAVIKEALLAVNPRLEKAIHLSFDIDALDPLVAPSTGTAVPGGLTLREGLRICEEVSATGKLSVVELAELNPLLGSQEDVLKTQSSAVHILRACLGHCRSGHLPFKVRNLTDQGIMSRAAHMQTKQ
Procedure: SmARG was dialyzed against 50 mM bicine (pH 8.5), 100 μM MnCl2, and 1.0 mM TCEP [5% (v/v) DMSO was included in the dialysis buffer when SmARG was titrated with ABH-PE and ABH-DP]. The inhibitor (ABH, 0.547 mM; NOHA, 1.097 mM; nor-NOHA, 0.443 mM; ABH-PE, 0.410 mM; ABH-DP, 0.436 mM) was dissolved in dialysis buffer.

Arginase [2] = target: T1, Arginase; assay: Archibald assay; conditions: pH 8.5
Procedure: Briefly, 0.5-50 mM L-arginine (pH 8.5) was added to a solution of 50 mM 4-(2-hydroxyethyl)piperazine-1-propanesulfonic acid (EPPS) (pH 8.5) and 100 μM MnCl2. The reaction (200 μL) was initiated by adding 1 μM SmARG at 21°C and terminated after 1 min using 30 μL of a 3:1 (v/v) concentrated acid/dye solution.

| SMILES | Kd (Arginase [1]) | Ki (Arginase [2]) |
| --- | --- | --- |
| N[C@@](CCCCB(O)O)(C(=O)O)C1CCN(Cc2ccc(Cl)c(Cl)c2)CC1 [(R)-2-amino-6-borono-2-[1-(3,4-dichlorobenzyl)piperidin-4-yl]hexanoic acid (ABH-DP)] | 0.54 µM |  |
| N[C@@H](CCCCB(O)O)C(=O)O [2(S)-amino-6-boronohexanoic acid (ABH)] | 1.3 µM | 1.8 µM |
| N[C@](CCCCB(O)O)(CCN1CCCCC1)C(=O)O | 0.26 µM |  |
